Results as given in EP2468718A1, “Cabanillasin, a new antifungal compound, produced by entomopathogenic xenorhabdus cabanillasii” (Nosopharm, priority 2010, dated 2012).
Like-named read-outs stand apart in the source and are kept apart here.

Tests used:
Test in all cases: Antifungal susceptibility testing, M38-A microdilution method (filamentous fungi)
[1] = tested on: Rhizopus oryzae environemental strain; type: cell-based; conditions: Rhizopus arrhizus, read-out: % of growth inhibition
Method: (§1) Cabanillasin activity was tested against different fungal human pathogens: ascomycetes yeasts (Candida albicans ATCC 90029, Candida Glabrata ATCC 90030, Candida krusei ATCC 6258 and Candida lusitaniae CBS 6936), basidiomycetes yeasts (Cryptococcus neoformans clinical strain), ascomycetes filamentous fungi (Aspergilus fumigatus clinical strain, Fusarium oxysporum clinical strain) and zygomycetes filamentous fungi (Rhizopus oryzae environemental strain) by the M38-A microdilution method with RPMI 1640 medium (RPMI 1640, MOPS 160 mM, glucose 18 g/L, pH 7) as recommended in the […]. The NCCLS M27-A2 broth microdilution method (NCCLS) was used when yeasts were tested.
(§2) Yeasts and filamentous inoculi were prepared on YPD medium (yeast extract 10 g/L, peptone 10 g/L and glucose 20 g/L) and Malt medium (malt extract 20 g/L) respectively. The densities of inoculi were adjusted by dilution in RPMI 1640 broth to a value ranged from 5.10^2 to 5.10^3 CFU/mL for yeasts isolates and 5.10^3 to 5.10^4 CFU/mL for filamentous fungi. Microdilution trays (96 U-bottom shaped) containing 190 µL fungal inoculum were added with 10 µL Cabanillasin solution (final concentration ranging from 50 to 0.098 mg/L for all fungi). After inoculation of the trays, all microdilution trays were incubated at 35°C in ambient air. The culture absorbance was measured at 600 nm, 24 h and 48 h after the beginning of the experiments for the yeasts and 48 h and 72 h after the beginning of the experiments for filamentous fungi and Cryptococcus neoformans. The activity results correspond to a percentage of growth inhibition ((1-Abs600 nm culture with Cabanillasin)/ Abs600 nm culture without Cabanillasin) x 100.
(§3) The IC50 value is the concentration at which inhibition of growth is equal to 50%. MICs for Candida species were determined at 24 h and 48 h and corresponded to 100% of growth inhibition. Amphotericin B was provided as standard (final concentration ranging from 16 to 0.03 mg/L for all fungi). Experiments were done in duplicate.

[2] = tested on: Fusarium oxysporum clinical strain; type: cell-based; conditions: read-out: % of growth inhibition
Method: as §1, §2, §3

[3] = tested on: Aspergilus fumigatus clinical strain; type: cell-based, Aspergillus fumigatus; conditions: Aspergillus fumigatus, read-out: % of growth inhibition
Method: as §1, §2, §3

Question: What does the source list for `C[C@@H]1[C@H](O)[C@@H](C)/C=C/C=C/C=C/C=C/C=C/C=C/C=C/[C@H](O[C@@H]2O[C@H](C)[C@@H](O)[C@H](N)[C@@H]2O)C[C@@H]2O[C@](O)(C[C@@H](O)C[C@@H](O)[C@H](O)CC[C@@H](O)C[C@@H](O)CC(=O)O[C@H]1C)C[C@H](O)[C@H]2C(=O)O` [Amphotericin B, reference compound]?
Answer: inhibition at 0.03 µg/mL ([1]; 48 h incubation): 26.7%; inhibition at 0.03 µg/mL ([1]; 72 h incubation): 0%; inhibition at 0.06 µg/mL ([1]; 48 h incubation): 35%; inhibition at 0.06 µg/mL ([1]; 72 h incubation): 0%; inhibition at 0.12 µg/mL ([1]; 48 h incubation): 22%; inhibition at 0.12 µg/mL ([1]; 72 h incubation): 0%; inhibition at 0.25 µg/mL ([1]; 48 h incubation): 43.9%; inhibition at 0.25 µg/mL ([1]; 72 h incubation): 12%; inhibition at 0.5 µg/mL ([1]; 48 h incubation): 47.4%; inhibition at 0.5 µg/mL ([1]; 72 h incubation): 62.1%; inhibition at 1 µg/mL ([1]; 48 h incubation): 92.2%; inhibition at 1 µg/mL ([1]; 72 h incubation): 66%; inhibition at 2 µg/mL ([1]; 48 h incubation): 100%; inhibition at 2 µg/mL ([1]; 72 h incubation): 77.4%; inhibition at 4 µg/mL ([1]; 48 h incubation): 100%; inhibition at 4 µg/mL ([1]; 72 h incubation): 100%; inhibition at 8 µg/mL ([1]; 48 h incubation): 100%; inhibition at 8 µg/mL ([1]; 72 h incubation): 100%; inhibition at 16 µg/mL ([1]; 48 h incubation): 100%; inhibition at 16 µg/mL ([1]; 72 h incubation): 100%; inhibition at 0.03 µg/mL ([2]; 48 h incubation): 14%; inhibition at 0.03 µg/mL ([2]; 72 h incubation): 0%; inhibition at 0.06 µg/mL ([2]; 48 h incubation): 26.3%; inhibition at 0.06 µg/mL ([2]; 72 h incubation): 0%; inhibition at 0.12 µg/mL ([2]; 48 h incubation): 39.8%; inhibition at 0.12 µg/mL ([2]; 72 h incubation): 24.6%; inhibition at 0.25 µg/mL ([2]; 48 h incubation): 65.2%; inhibition at 0.25 µg/mL ([2]; 72 h incubation): 49.8%; inhibition at 0.5 µg/mL ([2]; 48 h incubation): 100%; inhibition at 0.5 µg/mL ([2]; 72 h incubation): 90.2%; inhibition at 1 µg/mL ([2]; 48 h incubation): 100%; inhibition at 1 µg/mL ([2]; 72 h incubation): 100%; inhibition at 2 µg/mL ([2]; 48 h incubation): 100%; inhibition at 2 µg/mL ([2]; 72 h incubation): 100%; inhibition at 4 µg/mL ([2]; 48 h incubation): 100%; inhibition at 4 µg/mL ([2]; 72 h incubation): 100%; inhibition at 8 µg/mL ([2]; 48 h incubation): 100%; inhibition at 8 µg/mL ([2]; 72 h incubation): 100%; inhibition at 16 µg/mL ([2]; 48 h incubation): 100%; inhibition at 16 µg/mL ([2]; 72 h incubation): 100%; inhibition at 0.03 µg/mL ([3]; 48 h incubation): 3%; inhibition at 0.03 µg/mL ([3]; 72 h incubation): 0%; inhibition at 0.06 µg/mL ([3]; 48 h incubation): 33.5%; inhibition at 0.06 µg/mL ([3]; 72 h incubation): 0%; inhibition at 0.12 µg/mL ([3]; 48 h incubation): 37.2%; inhibition at 0.12 µg/mL ([3]; 72 h incubation): 41.5%; inhibition at 0.25 µg/mL ([3]; 48 h incubation): 100%; inhibition at 0.25 µg/mL ([3]; 72 h incubation): 85.2%; inhibition at 0.5 µg/mL ([3]; 48 h incubation): 100%; inhibition at 0.5 µg/mL ([3]; 72 h incubation): 100%; inhibition at 1 µg/mL ([3]; 48 h incubation): 100%; inhibition at 1 µg/mL ([3]; 72 h incubation): 100%; inhibition at 2 µg/mL ([3]; 48 h incubation): 100%; inhibition at 2 µg/mL ([3]; 72 h incubation): 100%; inhibition at 4 µg/mL ([3]; 48 h incubation): 100%; inhibition at 4 µg/mL ([3]; 72 h incubation): 100%; inhibition at 8 µg/mL ([3]; 48 h incubation): 100%; inhibition at 8 µg/mL ([3]; 72 h incubation): 100%; inhibition at 16 µg/mL ([3]; 48 h incubation): 100%; inhibition at 16 µg/mL ([3]; 72 h incubation): 100%
